Source: patent US20030170176A1, “Individualization of therapy with antipsychotics” (McGill University, priority 2001, published 2003)

Test system: AAMU-Ab
Assay: Competitive antigen ELISA, cross-reactivity of AAMU-Ab
Format: binding, rabbit
Settings: 0 = absence of inhibition or inhibition no higher than 40% at highest concentration tested (5 × 10^−3 M)
Description: Competitive Antigen ELISA
Buffers and water without additives are filtered through millipore filters and kept for 1 week. BSA, antibodies, Tween™ 20 and horse radish peroxidase conjugates are added to these buffers and water just prior to use. Urine samples are usually collected 4 hours after drinking a cup of coffee (instant or brewed with approximately 100 mg of caffeine per cup) and stored at −80° C. The urine samples are diluted 10 times with sodium phosphate buffer (620 mosm, pH 7.50) and are subsequently diluted with water to give concentrations of AAMU and 1× no higher than 3×10^−6 M in the ELISA. All the pipettings are done with an eight-channel pipette, except those of the antibody and sample solutions. Starting with the last well, 100 μL of a carbonate buffer (100 mM, pH 9.6) containing 2.5 μg mL^−1 antibodies are added to each well. After 90 min. at room temperature, the wells are washed three times with […] of TPB: isotonic sodium phosphate buffer (310 mosm, pH 7.50) containing 0.05% Tween™ 20.
After the initial wash, unoccupied sites are blocked by incubation for 90 min. at room temperature with 100 μL TBP containing 3% BSA. The wells are washed four times with 100 μL TPB. […] The microplate is gently shaken with an orbital shaker at room temperature for 3-4 hours. […]

SMILES: O=c1[nH]c(=O)c2[nH]cnc2[nH]1 [Xanthine]
- % Cross-Reaction AAMU-Ab: 0a %
